Numbered stars: 1 amine (or outer) side, 2 acyl side, 3 side chain; on linkers, the order of the positions; unused ones are H or OH. Bridge positions count the residues as written; N and C are the ends. Square brackets hold non-standard residues; d marks the D form. Peptide text beside a SMILES is read from it. ξ: configuration not given here. Trp(1-CH2CONHSO2Me) = CS(=O)(=O)NC(=O)Cn1cc(C[C@H](N)C(=O)O)c2ccccc21; X10 = COc1ccc2c(c1)c(C[C@H](N[*:1])C(=O)[*:2])cn2CC(=O)O; X11 = O=C(O)Cc1nc(C[C@H](N[*:1])C(=O)[*:2])c2n1CCCC2; X7 = O=C(O)Cc1nc(C[C@H](N[*:1])C(=O)[*:2])n2ccccc12; X8 = O=C(O)Cn1cc(CC(N[*:1])C(=O)[*:2])c2cncnc21; X16 = O=C([C@H](Cc1cccc2ccncc12)N[*:1])[*:2]; X4 = Cc1cccc2c(CC(N[*:1])C(=O)[*:2])n[nH]c12; Phe(4-Cl) = N[C@@H](Cc1ccc(Cl)cc1)C(=O)O; Phe(4-F) = N[C@@H](Cc1ccc(F)cc1)C(=O)O; Hyp = O=C(O)[C@@H]1C[C@@H](O)CN1; NMeNle = CCCC[C@H](NC)C(=O)O; Pen = CC(C)(S)[C@H](N)C(=O)O; Pip = O=C(O)[C@@H]1CCCCN1; NMeA = CN[C@@H](C)C(=O)O; Dab = NCC[C@H](N)C(=O)O; Dap = NC[C@H](N)C(=O)O; ξP = O=C(O)C1CCCN1
biological target: T1, PD-1-Ig binding to PD-L1-TVMV-His (PD-L1-His) (Homo sapiens, UniProt Q9NZQ7); test: PD-1/PD-L1 Homogenous Time-Resolved Fluorescence (HTRF) binding assay; conditions: PD-1-Ig (20 nM)/PD-L1-His (10 nM); numeric value
T1 construct: hPDL1 (19-239)-TVMV-His; TVMV protease cleavage site (C); made in house; host or cells: HEK293T cells
Text: The ability of the macrocyclic peptides of the present disclosure to bind to PD-L1 was investigated using a PD-1/PD-L1 Homogenous Time-Resolved Fluorescence (HTRF) binding assay.
Homogenous Time-Resolved Fluorescence (HTRF) Assays of Binding of Soluble PD-1 to Soluble PD-L1. Soluble PD-1 and soluble PD-L1 refers to proteins with carboxyl-end truncations that remove the transmembrane-spanning regions and are fused to heterologous sequences, specifically the Fc portion of the human immunoglobuling G sequence (Ig) or the hexahistidine epitope tag (His). All binding studies were performed in an HTRF assay buffer consisting of dPBS supplemented with 0.1% (w/v) bovine serum albumin and 0.05% (v/v) Tween-20. For the PD-1-Ig/PD-L1-His binding assay, inhibitors were pre-incubated with PD-L1-His (10 nM final) for 15 m in 4 μl of assay buffer, followed by addition of PD-1-Ig (20 nM final) in 1 μl of assay buffer and further incubation for 15 m. PD-L1 fusion proteins from either human, cynomologous macaques, mouse, or other species were used. HTRF detection was achieved using europium crypate-labeled anti-Ig monoclonal antibody (1 nM final) and allophycocyanin (APC) labeled anti-His monoclonal antibody (20 nM final). Antibodies were diluted in HTRF detection buffer and 5 μl was dispensed on top of binding reaction. The reaction was allowed to equilibrate for 30 minutes and signal (665 nm/620 nm ratio) was obtained using an EnVision fluorometer. Additional binding assays were established between PD-1-Ig/PD-L2-His (20 and 5 nM, respectively), CD80-His/PD-L1-Ig (100 and 10 nM, respectively) and CD80-His/CTLA4-Ig (10 and 5 nM, respectively). Binding/competition studies between biotinylated Compound No. 71 and human PD-L1-His were performed as follows. Macrocyclic peptide inhibitors were pre-incubated with PD-L1-His (10 nM final) for 60 minutes in 4 μl of assay buffer followed by addition of biotinylated Compound No. 71 (0.5 nM final) in 1 μl of assay buffer. Binding was allowed to equilibrate for 30 minutes followed by addition of europium crylated labeled Streptavidin (2.5 pM final) and APC-labeled anti-His (20 nM final) in 5 μl of HTRF buffer. The reaction was allowed to equilibrate for 30 m and signal (665 nm/620 nm ratio) was obtained using an EnVision fluorometer.
Recombinant Proteins. Carboxyl-truncated human PD-1 (amino acids 25-167) with a C-terminal human Ig epitope tag [hPD-1 (25-167)-3S-IG] and human PD-L1 (amino acids 18-239) with a C-terminal His epitope tag [hPD-L1(19-239)-tobacco vein mottling virus protease cleavage site (TVMV)-His] were expressed in HEK293T cells and purified sequentially by recombinant Protein A affinity chromatography and size exclusion chromatography. Human PD-L2-His (Sino Biologicals), CD80-His (Sino Biologicals), CTLA4-Ig (RnD Systems) were all obtained through commercial sources.

T1 sequence (Q9NZQ7 with tags, fused parts or gaps): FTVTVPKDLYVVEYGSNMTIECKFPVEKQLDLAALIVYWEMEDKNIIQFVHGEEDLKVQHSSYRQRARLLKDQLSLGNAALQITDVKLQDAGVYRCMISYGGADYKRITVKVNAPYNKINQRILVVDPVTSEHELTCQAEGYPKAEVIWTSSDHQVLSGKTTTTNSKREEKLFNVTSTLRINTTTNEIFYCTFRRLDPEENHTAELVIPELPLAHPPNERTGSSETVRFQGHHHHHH

IC50 | Compound
7140 nM | CCCC[C@H]1C(=O)N(C)[C@@H](CCCC)C(=O)N[C@@H](C)C(=O)N[C@H](C(=O)NCC(N)=O)CSCC(=O)N[C@@H](Cc2ccc(O)cc2)C(=O)N(C)[C@@H](C)C(=O)N[C@@H](CC(N)=O)C(=O)N2CCCC2C(=O)N[C@@H](Cc2cnc[nH]2)C(=O)N[C@@H](CCC(N)=O)C(=O)N2C[C@H](O)C[C@H]2C(=O)N[C@@H](Cc2c[nH]c3ccccc23)C(=O)N[C@@H](CO)C(=O)NC(Cc2n[nH]c3c(C)cccc23)C(=O)N1C (stereo partly drawn) [Example 1288] ({CH2CO}-Y[NMeA]N[ξP]HQ[Hyp]WS[X4][NMeNle][NMeNle]ACG-NH2; thioether N-14)
4 nM | CCCC[C@H]1C(=O)N(C)[C@@H](CCCC)C(=O)N[C@@H](CC(C)C)C(=O)N[C@H](C(=O)NCC(N)=O)CSCC(=O)N[C@@H](Cc2ccc(O)cc2)C(=O)N(C)[C@@H](C)C(=O)N[C@@H](CC(N)=O)C(=O)N2CCC[C@H]2C(=O)N[C@@H](CN)C(=O)N[C@@H](CC(C)C)C(=O)N2C[C@H](O)C[C@H]2C(=O)N[C@@H](Cc2c[nH]c3ccccc23)C(=O)N[C@@H](CCN)C(=O)N[C@@H](Cc2cn(CC(=O)NS(C)(=O)=O)c3ccccc23)C(=O)N1C [Example 1001] ({CH2CO}-Y[NMeA]NP[Dap]L[Hyp]W[Dab][Trp(1-CH2CONHSO2Me)][NMeNle][NMeNle]LCG-NH2; thioether N-14)

same assay, conditions: PD-1-Ig (20 nM)/PD-L1-His (10 nM); range class

IC50 | Compound
1 to 9.9 nM | CCCC[C@H]1C(=O)N(C)[C@@H](CCCC)C(=O)N[C@@H](CC(C)C)C(=O)N[C@H](C(N)=O)C(C)(C)SCC(=O)N[C@@H](Cc2ccc(Cl)cc2)C(=O)N2CCCC[C@H]2C(=O)N[C@@H](CC(=O)O)C(=O)N2CCC[C@H]2C(=O)N[C@@H](Cc2cnc[nH]2)C(=O)N[C@@H](CCC(=O)O)C(=O)N2C[C@H](O)C[C@H]2C(=O)N[C@@H](Cc2c[nH]c3ccccc23)C(=O)N[C@@H](CCN)C(=O)N[C@@H](Cc2cn(CC(=O)NS(C)(=O)=O)c3ccccc23)C(=O)N1C [Example 1008] ({CH2CO}-[Phe(4-Cl)][Pip]DPHE[Hyp]W[Dab][Trp(1-CH2CONHSO2Me)][NMeNle][NMeNle]L[Pen]-NH2; thioether N-14)
10 to 99 nM | CCCC[C@H]1C(=O)N(C)[C@@H](CCCC)C(=O)N[C@@H](CC(C)C)C(=O)N[C@H](C(=O)NCC(N)=O)CSCC(=O)N[C@@H](Cc2ccc(O)cc2)C(=O)N(C)[C@@H](C)C(=O)N[C@@H](CC(N)=O)C(=O)N2CCC[C@H]2C(=O)N[C@@H](CN)C(=O)N[C@@H](CC(C)C)C(=O)N2C[C@H](O)C[C@H]2C(=O)N[C@@H](Cc2c[nH]c3ccccc23)C(=O)N[C@@H](CCN)C(=O)N[C@@H](Cc2nc(CC(=O)O)n3c2CCCC3)C(=O)N1C [Example 1009] ({CH2CO}-Y[NMeA]NP[Dap]L[Hyp]W[Dab][X11][NMeNle][NMeNle]LCG-NH2; thioether N-14)
1 to 9.9 nM | CCCC[C@H]1C(=O)N(C)[C@@H](CCCC)C(=O)N[C@@H](CC(C)C)C(=O)N[C@H](C(=O)NCC(N)=O)CSCC(=O)N[C@@H](Cc2ccc(O)cc2)C(=O)N(C)[C@@H](C)C(=O)N[C@@H](CC(N)=O)C(=O)N2CCC[C@H]2C(=O)N[C@@H](CN)C(=O)N[C@@H](CC(C)C)C(=O)N2C[C@H](O)C[C@H]2C(=O)N[C@@H](Cc2c[nH]c3ccccc23)C(=O)N[C@@H](CCN)C(=O)N[C@@H](Cc2nc(CC(=O)O)c3ccccn23)C(=O)N1C [Example 1017] ({CH2CO}-Y[NMeA]NP[Dap]L[Hyp]W[Dab][X7][NMeNle][NMeNle]LCG-NH2; thioether N-14)
1 to 9.9 nM | CCCC[C@H]1C(=O)N(C)[C@@H](CCCC)C(=O)N[C@@H](CC(C)C)C(=O)N[C@H](C(N)=O)C(C)(C)SCC(=O)N[C@@H](Cc2ccc(F)cc2)C(=O)N2CCCC[C@H]2C(=O)N[C@@H](CC(=O)O)C(=O)N2CCC[C@H]2C(=O)N[C@@H](Cc2cnc[nH]2)C(=O)N[C@@H](CCC(=O)O)C(=O)N2C[C@H](O)C[C@H]2C(=O)N[C@@H](Cc2c[nH]c3ccccc23)C(=O)N[C@@H](CCN)C(=O)N[C@@H](Cc2cn(CC(=O)NS(C)(=O)=O)c3ccccc23)C(=O)N1C [Example 1006] ({CH2CO}-[Phe(4-F)][Pip]DPHE[Hyp]W[Dab][Trp(1-CH2CONHSO2Me)][NMeNle][NMeNle]L[Pen]-NH2; thioether N-14)
1 to 9.9 nM | CCCC[C@H]1C(=O)N(C)[C@@H](CCCC)C(=O)N[C@@H](CC(C)C)C(=O)N[C@H](C(N)=O)C(C)(C)SCC(=O)N[C@@H](Cc2ccc(OC)cc2)C(=O)N2CCCC[C@H]2C(=O)N[C@@H](CC(=O)O)C(=O)N2CCC[C@H]2C(=O)N[C@@H](Cc2cnc[nH]2)C(=O)N[C@@H](CCC(=O)O)C(=O)N2C[C@H](O)C[C@H]2C(=O)N[C@@H](Cc2c[nH]c3ccccc23)C(=O)N[C@@H](CCN)C(=O)N[C@@H](Cc2cn(CC(=O)NS(C)(=O)=O)c3ccccc23)C(=O)N1C [Example 1007] ({CH2CO}-Y(Me)[Pip]DPHE[Hyp]W[Dab][Trp(1-CH2CONHSO2Me)][NMeNle][NMeNle]L[Pen]-NH2; thioether N-14)
1 to 9.9 nM | CCCC[C@H]1C(=O)N(C)[C@@H](CCCC)C(=O)N[C@@H](CC(C)C)C(=O)N[C@H](C(=O)NCC(N)=O)CSCC(=O)N[C@@H](Cc2ccc(O)cc2)C(=O)N(C)[C@@H](C)C(=O)N[C@@H](CC(N)=O)C(=O)N2CCC[C@H]2C(=O)N[C@@H](CN)C(=O)N[C@@H](CC(C)C)C(=O)N2C[C@H](O)C[C@H]2C(=O)N[C@@H](Cc2c[nH]c3ccccc23)C(=O)N[C@@H](CCN)C(=O)N[C@@H](Cc2cn(CC(=O)O)c3ccc(OC)cc23)C(=O)N1C [Example 10506] ({CH2CO}-Y[NMeA]NP[Dap]L[Hyp]W[Dab][X10][NMeNle][NMeNle]LCG-NH2; thioether N-14)
10 to 99 nM | CCCC[C@H]1C(=O)N(C)[C@@H](CCCC)C(=O)N[C@@H](C)C(=O)N[C@H](C(=O)NCC(N)=O)CSCC(=O)N[C@@H](Cc2ccc(O)cc2)C(=O)N(C)[C@@H](C)C(=O)N[C@@H](CC(N)=O)C(=O)N2CCC[C@H]2C(=O)N[C@@H](Cc2cnc[nH]2)C(=O)N[C@@H](CCC(N)=O)C(=O)N2C[C@H](O)C[C@H]2C(=O)N[C@@H](Cc2c[nH]c3ccccc23)C(=O)N[C@@H](CO)C(=O)N[C@@H](Cc2cccc3ccncc23)C(=O)N1C [Example 1271] ({CH2CO}-Y[NMeA]NPHQ[Hyp]WS[X16][NMeNle][NMeNle]ACG-NH2; thioether N-14)
1 to 9.9 nM | CCCC[C@H]1C(=O)N(C)[C@@H](CCCC)C(=O)N[C@@H](CC(C)C)C(=O)N[C@H](C(N)=O)CSCC(=O)N[C@@H](Cc2ccc(O)cc2)C(=O)N(C)[C@@H](C)C(=O)N[C@@H](CC(N)=O)C(=O)N2CCC[C@H]2C(=O)N[C@@H](CN)C(=O)N[C@@H](CC(C)C)C(=O)N2C[C@H](O)C[C@H]2C(=O)N[C@@H](Cc2c[nH]c3ccccc23)C(=O)N[C@@H](CCN)C(=O)N[C@@H](Cc2cn(CC(=O)O)c3ccc(OC)cc23)C(=O)N1C [Example 10503] ({CH2CO}-Y[NMeA]NP[Dap]L[Hyp]W[Dab][X10][NMeNle][NMeNle]LC-NH2; thioether N-14)
100 to 990 nM | CCCC[C@H]1C(=O)N(C)[C@@H](CCCC)C(=O)N[C@@H](CC(C)C)C(=O)N[C@H](C(=O)NCC(N)=O)CSCC(=O)N[C@@H](Cc2ccc(O)cc2)C(=O)N(C)[C@@H](C)C(=O)N[C@@H](CC(N)=O)C(=O)N2CCC[C@H]2C(=O)N[C@@H](CN)C(=O)N[C@@H](CC(C)C)C(=O)N2C[C@H](O)C[C@H]2C(=O)N[C@@H](Cc2c[nH]c3ccccc23)C(=O)N[C@@H](CCN)C(=O)NC(Cc2cn(CC(=O)O)c3ncncc23)C(=O)N1C (stereo partly drawn) [Example 10002] ({CH2CO}-Y[NMeA]NP[Dap]L[Hyp]W[Dab][X8][NMeNle][NMeNle]LCG-NH2; thioether N-14)
1 to 9.9 nM | CCCC[C@H]1C(=O)N(C)[C@@H](CCCC)C(=O)N[C@@H](CC(C)C)C(=O)N[C@H](C(N)=O)C(C)(C)SCC(=O)N[C@@H](Cc2ccc(Cl)cc2)C(=O)N2CCCC[C@H]2C(=O)N[C@@H](CC(=O)O)C(=O)N2CCC[C@H]2C(=O)N[C@@H](CN)C(=O)N[C@@H](CCC(=O)O)C(=O)N2C[C@H](O)C[C@H]2C(=O)N[C@@H](Cc2c[nH]c3ccccc23)C(=O)N[C@@H](CCN)C(=O)N[C@@H](Cc2cn(CC(=O)NS(C)(=O)=O)c3ccccc23)C(=O)N1C [Example 1005] ({CH2CO}-[Phe(4-Cl)][Pip]DP[Dap]E[Hyp]W[Dab][Trp(1-CH2CONHSO2Me)][NMeNle][NMeNle]L[Pen]-NH2; thioether N-14)
